Results on 5 compounds are retold here after patent US7763658B2, “Treatment for cancers” (Synta Pharmaceuticals Corp., priority 2003, dated 2010).

In one series the test system is 39SK normal fibroblast. Description: In vitro cytotoxicity, MTS assay, 39SK. It is filed as cell-based. The following applies: Human normal fibroblast, 72 hours. On the procedure: (§1) All experiments were performed on exponentially growing cell culture.
Another series deals with MES-SA/DX5. Description: Tumor cell growth inhibition, MTS assay, MES-SA/DX5. It is filed as cell-based, human. The following applies: protocol of Example 15, Table 2. On the procedure:
(§2) The in vitro activity of the compounds was assessed in a selected set of human cancer cell lines.
(§3) MES-SA, a model of uterine sarcoma, is sensitive to a number of chemotherapeutic agents, including Doxorubicin, Dactinomycin, Mitomycin C, paclitaxel and Bleomycin, but resistant to Vinblastine and Cisplatin. MES-SA/DX5 was established in the presence of increasing concentrations of Doxorubicin. […] Both MES-SA and MES-SA/Dx5 were purchased from ATCC (ATCC CRL-1976 and ATCC CRL-1977, respectively).
(§4) All experiments were performed on exponentially growing cell culture. Cell densities were 2.5×10^4 cells/ml in all experiment except special.

The test system of series [1] is multi-drug resistant human uterine sarcoma MES-SA/DX5 tumors. The series is described as follows: MES-SA/DX5 tumors in nude mice. It is filed as in vivo. The following applies: 15 mg/kg intravenously, 3 times a week for 3 weeks. Here is the method: A supplemented media was prepared from 50% DMEM/Dulbecco Modified Eagle Medium (High Glucose), 50% RPMI 1640, 10% FBS/Fetal Bovine Serum (Hybridoma Tested; Sterile Filtered), 1% L-Glutamine, 1% Penicillin-Streptomycin, 1% MEM Sodium Pyruvate and 1% MEM Non-Essential Amino Acids. FBS was obtained from Sigma Chemical Co. and other ingredients were obtained from Invitrogen Life Technologies, USA). The supplemental media was warmed to 37° C. and 50 ml of media was added to a 175 cm^2 tissue culture flask.
The cells used in the assay were multi-drug resistant MES-SA/DX-5 Human Uterine Sarcoma cells from the American Type Culture Collection. 1 vial of MES-SA/DX-5 cells from the liquid nitrogen frozen cell stock was removed. The frozen vial of cells was immediately placed into a 37° C. water bath and gently swirled until thawed. The freeze-vial was wiped with 70% ethanol and cells were immediately pipetted into the 175 cm^2 tissue culture flask containing supplemented media. […]
The flask was washed with 10 ml of sterile room temperature phosphate buffered saline (PBS). […] The supernatant was aspirated and the cell pellet was resuspended in 10 ml of supplemented media and the cells were counted. […]
The above procedure for trypsinizing and centrifuging the cells were followed. The supernatant was aspirated and the cell pellet was resuspended in 10 ml of sterile PBS and the cells were counted. […]

In series [2] the test system is normal cancer cell lines (MES-SA, HL-60, Bowes). Description: Tumor cell growth inhibition, summary over normal cancer cell lines. The following applies: Homo sapiens, read-out: IC50 against normal cancer cell lines. Type of series: cell-based. On the procedure:
(§5) The in vitro activity of the compounds was assessed in a selected set of human cancer cell lines. Three pairs of tumor cell lines (non-resistant/resistant) were used to identify novel potent antitumor compounds which are capable of overcoming multi-drug resistance.
(§6) HL-60, a model of myeloid leukemia, was obtained from ATCC (ATCC CCL-240); and HL60/TX1000 was isolated in vitro by subculturing HL-60 in progressively higher concentration of paclitaxel. HL-60/TX1000 cells over-express mdr-1 mRNA and p-glycoprotein (PCP), as determined by western blot and immunofluorescence labeling with antiPGP antibodies. The cells are cross-resistant to paclitaxel, Vincristine, Adriamycin, Etoposide and Doxorubicin.
as §3
(§7) Bowes is a melanoma cell line; and Bowes/OV2 is a Vincristine resistant Bowes melanoma cell line.
as §4

In a further series the test system is MES-SA. The series is described as follows: Tumor cell growth inhibition, MTS assay, MES-SA. Type of series: cell-based. The following applies: Homo sapiens, 72 hours incubation. On the procedure: as §2, §3, §4
The subject of a further series is Bowes. Description: Tumor cell growth inhibition, MTS assay, Bowes. Type of series: cell-based. The following applies: Homo sapiens, 72 hours incubation. On the procedure: as §5, §7, §4
The test system of series [3] is MDR cell lines (MES-SA/DX5, HL-60/TX1000, Bowes/OV2). The series is described as follows: Tumor cell growth inhibition, summary over MDR cell lines. Type of series: cell-based, human. The following applies: for IC50: Homo sapiens, read-out: IC50 against the MDR cell lines. On the procedure: as §5, §6, §3, §7, §4
The next series concerns CEM (T-cell leukemia). The series is described as follows: cells. It is filed as cell-based. The following applies: Homo sapiens, 72 h, read-out: In vitro Cytotoxicity IC50, CEM. Here is the method:
as §1

The next series deals with HL-60. Description: Tumor cell growth inhibition, MTS assay, HL-60. Type of series: cell-based. The following applies: Homo sapiens, 72 hours incubation. On the procedure: as §5, §6, §4

Entries after “also recorded” stand apart in the source; their conditions may differ. Where only a bound is given, the exact number is not on record here.

For orientation: IC50 means the concentration that inhibits the measured activity by half. As for `CN(NC(=O)CC(=O)NN(C)C(=S)c1ccccc1)C(=S)c1ccccc1` [Compound (1)], the 50% inhibitory concentration (IC50) in the series with 39SK normal fibroblast is greater than 10000 nM.

Take `CC(C(=O)NN1Cc2ccccc2C1=S)C(=O)NN1Cc2ccccc2C1=S` [Compound (13)]: the IC50 with MES-SA/DX5 worked out at 0.05 µM.

For the compound `CCN(NC(=O)C(C)C(=O)NN(CC)C(=S)c1ccccc1)C(=S)c1ccccc1` [Compound (16)], the “toxicity such as body weight suppression and behavior changes” value in series [1] is reported as “without any obvious toxicity”. Also, the “tumor growth / tumor size of MES-SA/DX5 compared with vehicle” value in series [1] (FIG. 2) is reported as “significantly reduced; also recorded: significantly inhibits the tumor growth”. In the series with MES-SA/DX5 (Homo sapiens, MES-SA/Dx5), this compound came in with an IC50 of 0.05 µM.

As for `CC(=O)O[C@H]1C(=O)[C@@]2(C)[C@H]([C@H](OC(=O)c3ccccc3)[C@]3(O)C[C@H](OC(=O)[C@H](O)[C@@H](NC(=O)c4ccccc4)c4ccccc4)C(C)=C1C3(C)C)[C@]1(OC(C)=O)CO[C@@H]1C[C@@H]2O` [Paclitaxel], the IC50 in series [2] was 2 to 5 nM; with MES-SA, 0.005 µM; in the series on Bowes, 0.005 µM; in series [3], 5000 nM; in the series on CEM (T-cell leukemia), 10 nM; in the series with HL-60, 0.002 µM. The “IC50 compared with Compound (1), same multi-drug resistant cell lines” value in series [3] is “two to three orders of magnitude larger”.

`CC[C@]1(O)C[C@H]2CN(CCc3c([nH]c4ccccc34)[C@@](C(=O)OC)(c3cc4c(cc3OC)N(C=O)[C@H]3[C@@](O)(C(=O)OC)[C@H](OC(C)=O)[C@]5(CC)C=CCN6CC[C@]43[C@@H]65)C2)C1` [Vincristine]: the IC50 in the series with MES-SA turned out to be 0.004 µM; in the series on Bowes, 0.002 µM; in series [3], 5000 nM; with CEM (T-cell leukemia), 5 nM; in the series with HL-60, 0.002 µM. Moreover, the “IC50 compared with Compound (1), same multi-drug resistant cell lines” value in series [3] is on record as “two to three orders of magnitude larger”.
